Test results from ChEMBL document CHEMBL1649524, “Resistance selection studies comparing the activity of razupenem (PTZ601) to vancomycin and linezolid against eight methicillin-resistant and two methicillin-susceptible Staphylococcus aureus strains” (2009).
In brackets after ≈: the same amount, converted by molar mass.

Assays:
Format in all cases: functional
[1] = test system: Staphylococcus aureus; experiment: Antimicrobial activity against heterogeneous vancomycin-intermediate Staphylococcus aureus 168 measured on day 5 by macrodilution method; conditions: Staphylococcus aureus, 168, 120 h
[2] = test system: Staphylococcus aureus; experiment: Antimicrobial activity against vancomycin-intermediate Staphylococcus aureus 555 by macrodilution method
[3] = test system: Staphylococcus aureus; experiment: Antimicrobial activity against vancomycin-intermediate Staphylococcus aureus 1287 by macrodilution method
[4] = test system: Staphylococcus aureus; experiment: Antimicrobial activity against methicillin-resistant Staphylococcus aureus 525 by macrodilution method
[5] = test system: Staphylococcus aureus; experiment: Antimicrobial activity against methicillin-resistant Staphylococcus aureus 547 by macrodilution method
[6] = test system: Staphylococcus aureus; experiment: Antimicrobial activity against vancomycin-resistant Staphylococcus aureus 510 by macrodilution method
[7] = test system: Staphylococcus aureus; experiment: Antimicrobial activity against heterogeneous vancomycin-intermediate Staphylococcus aureus 873 after 30 passages by macrodilution method
[8] = test system: Staphylococcus aureus; experiment: Antimicrobial activity against methicillin-resistant Staphylococcus aureus 547 after 23 passages by macrodilution method
[9] = test system: Staphylococcus aureus; experiment: Antimicrobial activity against methicillin-susceptible Staphylococcus aureus 543 after 50 passages by macrodilution method
[10] = test system: Staphylococcus aureus; experiment: Antimicrobial activity against vancomycin-resistant Staphylococcus aureus 510 after 50 passages by macrodilution method
[11] = test system: Staphylococcus aureus; experiment: Antimicrobial activity against heterogeneous vancomycin-intermediate Staphylococcus aureus 873 measured after 10 antibiotic-free subculturing by macrodilution method
[12] = test system: Staphylococcus aureus; experiment: Antimicrobial activity against methicillin-susceptible Staphylococcus aureus 543 measured after 10 antibiotic-free subculturing by macrodilution method
[13] = test system: Staphylococcus aureus; experiment: Antimicrobial activity against methicillin-resistant Staphylococcus aureus 525 measured on day 5 by macrodilution method; conditions: Staphylococcus aureus, 525, 120 h
[14] = test system: Staphylococcus aureus; experiment: Antimicrobial activity against methicillin-resistant Staphylococcus aureus 547 measured on day 5 by macrodilution method; conditions: Staphylococcus aureus, 547, 120 h
[15] = test system: Staphylococcus aureus; experiment: Antimicrobial activity against methicillin-susceptible Staphylococcus aureus 540 measured on day 5 by macrodilution method; conditions: Staphylococcus aureus, 540, 120 h
[16] = test system: Staphylococcus aureus; experiment: Antimicrobial activity against vancomycin-resistant Staphylococcus aureus 509 measured on day 5 by macrodilution method; conditions: Staphylococcus aureus, 509, 120 h
[17] = test system: Staphylococcus aureus; experiment: Antimicrobial activity against heterogeneous vancomycin-intermediate Staphylococcus aureus 168 measured on day 10 by macrodilution method; conditions: Staphylococcus aureus, 168, 240 h
[18] = test system: Staphylococcus aureus; experiment: Antimicrobial activity against vancomycin-intermediate Staphylococcus aureus 1287 measured on day 10 by macrodilution method; conditions: Staphylococcus aureus, 1287, 240 h
[19] = test system: Staphylococcus aureus; experiment: Antimicrobial activity against methicillin-resistant Staphylococcus aureus 547 measured on day 10 by macrodilution method; conditions: Staphylococcus aureus, 547, 240 h
[20] = test system: Staphylococcus aureus; experiment: Antimicrobial activity against methicillin-susceptible Staphylococcus aureus 540 measured on day 10 by macrodilution method; conditions: Staphylococcus aureus, 540, 240 h
[21] = test system: Staphylococcus aureus; experiment: Antimicrobial activity against methicillin-susceptible Staphylococcus aureus 543 measured on day 10 by macrodilution method; conditions: Staphylococcus aureus, 543, 240 h
[22] = test system: Staphylococcus aureus; experiment: Antimicrobial activity against vancomycin-resistant Staphylococcus aureus 509 measured on day 10 by macrodilution method; conditions: Staphylococcus aureus, 509, 240 h
[23] = test system: Staphylococcus aureus; experiment: Antimicrobial activity against heterogeneous vancomycin-intermediate Staphylococcus aureus 873 measured on day 15 by macrodilution method; conditions: Staphylococcus aureus, 873, 360 h
[24] = test system: Staphylococcus aureus; experiment: Antimicrobial activity against vancomycin-intermediate Staphylococcus aureus 555 measured on day 15 by macrodilution method; conditions: Staphylococcus aureus, 555, 360 h
[25] = test system: Staphylococcus aureus; experiment: Antimicrobial activity against vancomycin-intermediate Staphylococcus aureus 1287 measured on day 15 by macrodilution method; conditions: Staphylococcus aureus, 1287, 360 h
[26] = test system: Staphylococcus aureus; experiment: Antimicrobial activity against methicillin-resistant Staphylococcus aureus 547 measured on day 15 by macrodilution method; conditions: Staphylococcus aureus, 547, 360 h
[27] = test system: Staphylococcus aureus; experiment: Antimicrobial activity against vancomycin-resistant Staphylococcus aureus 510 measured on day 15 by macrodilution method; conditions: Staphylococcus aureus, 510, 360 h
[28] = test system: Staphylococcus aureus; experiment: Antimicrobial activity against vancomycin-intermediate Staphylococcus aureus 555 measured on day 20 by macrodilution method; conditions: Staphylococcus aureus, 555, 480 h
[29] = test system: Staphylococcus aureus; experiment: Antimicrobial activity against vancomycin-intermediate Staphylococcus aureus 1287 measured on day 20 by macrodilution method; conditions: Staphylococcus aureus, 1287, 480 h
[30] = test system: Staphylococcus aureus; experiment: Antimicrobial activity against methicillin-resistant Staphylococcus aureus 525 measured on day 20 by macrodilution method; conditions: Staphylococcus aureus, 525, 480 h
[31] = test system: Staphylococcus aureus; experiment: Antimicrobial activity against methicillin-resistant Staphylococcus aureus 547 measured on day 20 by macrodilution method; conditions: Staphylococcus aureus, 547, 480 h
[32] = test system: Staphylococcus aureus; experiment: Antimicrobial activity against methicillin-susceptible Staphylococcus aureus 543 measured on day 20 by macrodilution method; conditions: Staphylococcus aureus, 543, 480 h
[33] = test system: Staphylococcus aureus; experiment: Antimicrobial activity against heterogeneous vancomycin-intermediate Staphylococcus aureus 168 measured on day 25 by macrodilution method; conditions: Staphylococcus aureus, 168, 600 h
[34] = test system: Staphylococcus aureus; experiment: Antimicrobial activity against methicillin-resistant Staphylococcus aureus 547 measured on day 25 by macrodilution method; conditions: Staphylococcus aureus, 547, 600 h
[35] = test system: Staphylococcus aureus; experiment: Antimicrobial activity against methicillin-susceptible Staphylococcus aureus 540 measured on day 25 by macrodilution method; conditions: Staphylococcus aureus, 540, 600 h
[36] = test system: Staphylococcus aureus; experiment: Antimicrobial activity against vancomycin-resistant Staphylococcus aureus 510 measured on day 30 by macrodilution method
[37] = test system: Staphylococcus aureus; experiment: Antimicrobial activity against vancomycin-intermediate Staphylococcus aureus 1287 measured on day 35 by macrodilution method
[38] = test system: Staphylococcus aureus; experiment: Antimicrobial activity against methicillin-susceptible Staphylococcus aureus 540 measured on day 35 by macrodilution method
[39] = test system: Staphylococcus aureus; experiment: Antimicrobial activity against vancomycin-intermediate Staphylococcus aureus 555 measured on day 40 by macrodilution method
[40] = test system: Staphylococcus aureus; experiment: Antimicrobial activity against methicillin-resistant Staphylococcus aureus 547 measured on day 40 by macrodilution method
[41] = test system: Staphylococcus aureus; experiment: Antimicrobial activity against methicillin-susceptible Staphylococcus aureus 540 measured on day 40 by macrodilution method
[42] = test system: Staphylococcus aureus; experiment: Antimicrobial activity against heterogeneous vancomycin-intermediate Staphylococcus aureus 168 measured on day 45 by macrodilution method
[43] = test system: Staphylococcus aureus; experiment: Antimicrobial activity against vancomycin-intermediate Staphylococcus aureus 555 measured on day 45 by macrodilution method
[44] = test system: Staphylococcus aureus; experiment: Antimicrobial activity against vancomycin-intermediate Staphylococcus aureus 1287 measured on day 45 by macrodilution method
[45] = test system: Staphylococcus aureus; experiment: Antimicrobial activity against methicillin-resistant Staphylococcus aureus 547 measured on day 45 by macrodilution method
[46] = test system: Staphylococcus aureus; experiment: Antimicrobial activity against heterogeneous vancomycin-intermediate Staphylococcus aureus 873 measured on day 50 by macrodilution method
[47] = test system: Staphylococcus aureus; experiment: Antimicrobial activity against vancomycin-intermediate Staphylococcus aureus 555 measured on day 50 by macrodilution method
[48] = test system: Staphylococcus aureus; experiment: Antimicrobial activity against methicillin-resistant Staphylococcus aureus 547 measured on day 50 by macrodilution method
[49] = test system: Staphylococcus aureus; experiment: Antimicrobial activity against vancomycin-resistant Staphylococcus aureus 510 measured on day 50 by macrodilution method
[50] = test system: Staphylococcus aureus; experiment: Antimicrobial activity against vancomycin-resistant Staphylococcus aureus 509 measured on day 50 by macrodilution method

Question: What does the source list for C[C@H]1C=C(c2csc(SC3=C(C(=O)O)N4C(=O)[C@H]([C@@H](C)O)[C@H]4[C@H]3C)n2)CN1 [RAZUPENEM]?
Answer: MIC [1]: 4 µg/mL (≈ 9.82 µM); MIC [2]: 0.5 µg/mL (≈ 1.23 µM); MIC [3]: 0.06 µg/mL (≈ 0.147 µM); MIC [4]: 1 µg/mL (≈ 2.45 µM); MIC [5]: 0.5 µg/mL (≈ 1.23 µM); MIC [6]: 1 µg/mL (≈ 2.45 µM); MIC [7]: 16 µg/mL (≈ 39.3 µM); MIC [8]: 4 µg/mL (≈ 9.82 µM); MIC [9]: 0.06 µg/mL (≈ 0.147 µM); MIC [10]: 4 µg/mL (≈ 9.82 µM); MIC [11]: 8 µg/mL (≈ 19.6 µM); MIC [12]: 0.016 µg/mL (≈ 0.0393 µM); MIC [13]: 2 µg/mL (≈ 4.91 µM); MIC [14]: 0.5 µg/mL (≈ 1.23 µM); MIC [15]: 0.016 µg/mL (≈ 0.0393 µM); MIC [16]: 2 µg/mL (≈ 4.91 µM); MIC [17]: 4 µg/mL (≈ 9.82 µM); MIC [18]: 0.25 µg/mL (≈ 0.613 µM); MIC [19]: 1 µg/mL (≈ 2.45 µM); MIC [20]: 0.016 µg/mL (≈ 0.0393 µM); MIC [21]: 0.03 µg/mL (≈ 0.0736 µM); MIC [22]: 2 µg/mL (≈ 4.91 µM); MIC [23]: 2 µg/mL (≈ 4.91 µM); MIC [24]: 2 µg/mL (≈ 4.91 µM); MIC [25]: 0.25 µg/mL (≈ 0.613 µM); MIC [26]: 2 µg/mL (≈ 4.91 µM); MIC [27]: 2 µg/mL (≈ 4.91 µM); MIC [28]: 2 µg/mL (≈ 4.91 µM); MIC [29]: 0.5 µg/mL (≈ 1.23 µM); MIC [30]: 4 µg/mL (≈ 9.82 µM); MIC [31]: 4 µg/mL (≈ 9.82 µM); MIC [32]: 0.03 µg/mL (≈ 0.0736 µM); MIC [33]: 8 µg/mL (≈ 19.6 µM); MIC [34]: 4 µg/mL (≈ 9.82 µM); MIC [35]: 0.03 µg/mL (≈ 0.0736 µM); MIC [36]: 4 µg/mL (≈ 9.82 µM); MIC [37]: 2 µg/mL (≈ 4.91 µM); MIC [38]: 0.06 µg/mL (≈ 0.147 µM); MIC [39]: 4 µg/mL (≈ 9.82 µM); MIC [40]: 16 µg/mL (≈ 39.3 µM); MIC [41]: 0.06 µg/mL (≈ 0.147 µM); MIC [42]: 8 µg/mL (≈ 19.6 µM); MIC [43]: 8 µg/mL (≈ 19.6 µM); MIC [44]: 2 µg/mL (≈ 4.91 µM); MIC [45]: 16 µg/mL (≈ 39.3 µM); MIC [46]: 16 µg/mL (≈ 39.3 µM); MIC [47]: 16 µg/mL (≈ 39.3 µM); MIC [48]: 16 µg/mL (≈ 39.3 µM); MIC [49]: 4 µg/mL (≈ 9.82 µM); MIC [50]: 4 µg/mL (≈ 9.82 µM)
